Assay [1] concerns the target T1, CDKs and other kinases (Homo sapiens, UniProt P06493).
T1 construct: other: CDK1B; residual activity (%) at 10 μM CDK1B; compound at 10 μM
Nature of the assay: Radiometric kinase assay (Eurofins Pharma Discovery or Reaction Biology Corporation Kinase Profiler). In kind it is biochemical. Particulars: CDK1B; for remaining activity at 10 µM: compound at 10 μM, read-out: residual activity (%) at 10 μM CDK1B; for Ki: read-out: CDK inhibition, Ki (μM) CDK1B. The procedure: (§1) Eurofins Pharma Discovery or Reaction Biology Corporation Kinase Profiler services were used to measure inhibition of CDKs and other kinases by radiometric assay. Inhibition of CDK4/D1, CDK6/D3 and CDK9/T1 were also determined in-house using ADP Glo Kinase assays (Promega Corporation, Madison, USA). Briefly, the kinase reaction for CDK4/D1 and CDK6/D3 was performed with kinase reaction buffer ([…] Tris base pH 7.5, 20 mM MgCl2, 0.4 mM DTT), 0.1 mg/ml BSA and RB-CTF substrate (retinoblastoma protein 1 C-terminal fraction). For CDK9/CyclinT1, the kinase reaction was performed with standard assay buffer and Kinase Dilution Buffer and RBER-IRStide substrate. Serial dilutions of 1:3 were prepared for test compounds for 10 concentrations (from 10 μM to 0.5 nM). The kinase reactions were started by addition of ATP, incubated for 40 min at 37° C. and then stopped by adding 10 μL of ADP Glo reagent. After incubation at room temperature in the dark for 40 min, 20 μL of kinase detection reagent was added per well and incubated for 40 min. Luminescence was measured using an EnVision Multilabel plate reader (PerkinElmer, Buckinghamshire, UK). Positive and negative controls were performed in the presence and absence of CDK kinases, respectively. Half-maximal inhibition (IC50) values were calculated using a 4-parameter logistic non-linear regression model with Graphpad prism (Version 6.0). Apparent inhibition constants (Ki) values were calculated from Km (ATP) and IC50 values for the respective kinases.

The target in assay [2] is T2, CDKs and other kinases (Homo sapiens, UniProt P50613).
T2 construct: other: CDK7H; residual activity (%) at 10 μM CDK7H; compound at 10 μM
T2 sequence (P50613 whole entry): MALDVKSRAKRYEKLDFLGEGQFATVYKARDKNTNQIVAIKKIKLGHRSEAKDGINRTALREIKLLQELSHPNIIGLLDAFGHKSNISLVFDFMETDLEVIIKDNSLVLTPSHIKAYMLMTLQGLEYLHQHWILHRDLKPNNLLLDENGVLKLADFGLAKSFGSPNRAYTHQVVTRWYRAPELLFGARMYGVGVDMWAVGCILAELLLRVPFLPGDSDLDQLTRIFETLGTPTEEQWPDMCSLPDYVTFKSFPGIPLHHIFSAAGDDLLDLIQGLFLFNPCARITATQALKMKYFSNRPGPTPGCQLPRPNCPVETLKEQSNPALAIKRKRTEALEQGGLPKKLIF
The description is as above. In kind it is biochemical. Particulars: CDK7H; for remaining activity at 10 µM: compound at 10 μM, read-out: residual activity (%) at 10 μM CDK7H; for Ki: read-out: CDK inhibition, Ki (μM) CDK7H. The procedure:
as §1

Assay [3] concerns the target T3, CDKs and other kinases (Homo sapiens, UniProt P24941).
T3 construct: other: CDK2A; residual activity (%) at 10 μM CDK2A; compound at 10 μM
Described as above. In kind it is biochemical. As to conditions: CDK2A; for remaining activity at 10 µM: compound at 10 μM, read-out: residual activity (%) at 10 μM CDK2A; for Ki: read-out: CDK inhibition, Ki (μM) CDK2A. As for the experimental part:
as §1

A further assay concerns leukemia cell lines. Description: Resazurin cell viability assay on leukemia cell lines (72 h growth inhibition, GI50). As to conditions: Homo sapiens, MV4-11 cells. In kind it is cell-based. The procedure:
Compounds from Example 1 were subjected to a standard MTT (3-(4,5-dimethylthiazol-2-yl)-2,5-diphenyltetrazolium bromide) and resazurin assays on solid tumour cell lines and leukemia cell lines, respectively, as previously reported (Wang S et al., J Med Chem 47:1662-1675, 2004 and Diab S. et al. CheMedChem 9:962-972, 2014). Compound concentrations required to inhibit 50% of cell growth (GI50) were calculated using non-linear regression analysis.

A further assay concerns the target CDK9/T1 (Homo sapiens, UniProt P50750). Nature of the assay: ADP Glo Kinase assay CDK9/T1. In kind it is biochemical. As to conditions: CDK9T1; read-out: CDK inhibition, Ki (μM) CDK9T1. The procedure: as §1
A further assay deals with CDK4/D1 (Homo sapiens, UniProt P11802). Nature of the assay: ADP Glo Kinase assay CDK4/D1. In kind it is biochemical. Particulars: CDK4D1; compound at 10 μM; read-out: residual activity (%) at 10 μM CDK4D1. As for the experimental part: as §1
CDK4/D1, sequence (P11802 whole entry): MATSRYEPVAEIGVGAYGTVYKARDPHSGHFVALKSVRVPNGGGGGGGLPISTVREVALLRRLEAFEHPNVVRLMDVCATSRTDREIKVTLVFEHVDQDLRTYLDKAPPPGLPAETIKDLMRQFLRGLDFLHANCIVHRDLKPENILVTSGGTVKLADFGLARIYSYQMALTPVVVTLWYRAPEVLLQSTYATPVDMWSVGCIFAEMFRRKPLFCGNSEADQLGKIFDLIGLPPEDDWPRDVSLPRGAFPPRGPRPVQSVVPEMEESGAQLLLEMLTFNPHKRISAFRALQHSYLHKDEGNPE
CDK4/D1, sequence (P24385 whole entry partner): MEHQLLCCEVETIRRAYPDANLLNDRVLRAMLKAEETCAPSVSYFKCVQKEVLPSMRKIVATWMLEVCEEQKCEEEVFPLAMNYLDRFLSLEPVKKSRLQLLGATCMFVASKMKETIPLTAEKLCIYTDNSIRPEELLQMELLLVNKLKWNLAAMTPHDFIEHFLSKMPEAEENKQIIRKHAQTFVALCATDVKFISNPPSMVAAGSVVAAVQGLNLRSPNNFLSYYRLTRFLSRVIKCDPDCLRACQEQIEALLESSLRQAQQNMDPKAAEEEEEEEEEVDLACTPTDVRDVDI

CDK9/T1, sequence (P50750 whole entry): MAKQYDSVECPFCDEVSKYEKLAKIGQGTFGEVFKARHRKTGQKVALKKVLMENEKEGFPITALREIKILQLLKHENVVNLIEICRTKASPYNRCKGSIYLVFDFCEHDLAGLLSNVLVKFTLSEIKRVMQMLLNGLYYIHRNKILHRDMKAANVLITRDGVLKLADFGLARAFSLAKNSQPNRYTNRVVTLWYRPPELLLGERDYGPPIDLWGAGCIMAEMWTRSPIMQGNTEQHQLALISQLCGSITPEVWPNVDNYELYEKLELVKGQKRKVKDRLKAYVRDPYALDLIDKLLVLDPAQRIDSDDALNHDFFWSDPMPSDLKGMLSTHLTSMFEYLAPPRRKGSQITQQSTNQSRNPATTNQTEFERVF
CDK9/T1, sequence (O60563 whole entry partner): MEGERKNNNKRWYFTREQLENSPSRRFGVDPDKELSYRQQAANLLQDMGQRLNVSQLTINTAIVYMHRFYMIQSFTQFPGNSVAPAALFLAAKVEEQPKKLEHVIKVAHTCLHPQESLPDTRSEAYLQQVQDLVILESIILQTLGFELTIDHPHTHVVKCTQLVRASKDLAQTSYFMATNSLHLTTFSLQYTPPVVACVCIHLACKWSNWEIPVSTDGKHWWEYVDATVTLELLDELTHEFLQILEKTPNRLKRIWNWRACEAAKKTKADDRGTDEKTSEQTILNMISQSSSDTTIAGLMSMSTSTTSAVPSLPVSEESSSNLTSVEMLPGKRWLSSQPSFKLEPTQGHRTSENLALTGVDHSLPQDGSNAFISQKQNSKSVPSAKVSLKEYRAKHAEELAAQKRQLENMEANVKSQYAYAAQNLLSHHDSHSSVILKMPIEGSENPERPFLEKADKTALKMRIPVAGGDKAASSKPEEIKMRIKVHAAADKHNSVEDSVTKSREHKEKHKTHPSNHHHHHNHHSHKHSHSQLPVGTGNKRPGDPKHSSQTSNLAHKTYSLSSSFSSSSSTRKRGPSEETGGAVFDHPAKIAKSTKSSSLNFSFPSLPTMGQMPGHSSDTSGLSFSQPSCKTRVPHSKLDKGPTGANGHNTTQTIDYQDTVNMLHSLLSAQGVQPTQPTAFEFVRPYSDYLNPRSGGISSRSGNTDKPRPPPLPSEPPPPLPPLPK
T1 sequence (P06493 whole entry): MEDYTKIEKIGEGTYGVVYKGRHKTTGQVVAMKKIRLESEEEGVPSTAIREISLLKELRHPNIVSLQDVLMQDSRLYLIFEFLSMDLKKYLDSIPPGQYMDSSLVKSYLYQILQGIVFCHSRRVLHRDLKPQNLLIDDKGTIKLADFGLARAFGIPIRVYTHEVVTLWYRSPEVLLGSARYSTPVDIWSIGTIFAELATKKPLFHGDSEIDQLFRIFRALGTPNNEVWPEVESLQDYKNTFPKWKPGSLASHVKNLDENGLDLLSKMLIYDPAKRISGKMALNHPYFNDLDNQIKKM

As for `Cc1cnc(N2CCC3(CCNC3=O)CC2)nc1-c1cnc2ccccn12` [Compound 124, 8-(4-(Imidazo[1,2-a]pyridin-3-yl)-5-methylpyrimidin-2-yl)-2,8-diazaspiro[4.5]decan-1-one], the remaining activity at 10 µM on CDKs and other kinases [1] stood at 87%; at CDKs and other kinases [2], 91%; at CDKs and other kinases [3] it was 34%. In the assay on leukemia cell lines, the 50% growth inhibitory concentration (GI50) is greater than 5 µM. For the same compound, the Ki at CDK9/T1 is greater than 5 µM.

On to `Cc1cnc(N[C@H]2CC[C@H](NCC(N)=O)CC2)nc1-c1cnc2ccc(Nc3cncnc3)cn12` [Compound 153, 2-(((1r,4r)-4-((5-Methyl-4-(6-(pyrimidin-5-ylamino)imidazo[1,2-a]pyridin-3-yl)pyrimidin-2-yl)amino)cyclohexyl)amino)acetamide], for which the inhibitory constant (Ki) at CDKs and other kinases [1] is 0.632 µM; at CDK9/T1, 0.01 µM. The remaining activity at 10 µM is 49% at CDKs and other kinases [2]; 14% on CDKs and other kinases [3]; 0% at CDK4/D1. In the assay with leukemia cell lines, this compound registered a 50% growth inhibitory concentration (GI50) of 9.32 ± 0.73 µM.

In the case of `Fc1cnc(NC2CCNCC2)nc1-c1cnc2ccccn12` [Compound 21, 5-Fluoro-4-(imidazo[1,2-a]pyridin-3-yl)-N-(piperidin-4-yl)pyrimidin-2-amine], the Ki was found to be 0.479 µM at CDKs and other kinases [1]; 0.6 µM at CDKs and other kinases [2]; 0.321 µM at CDKs and other kinases [3]; 0.069 µM at CDK9/T1. Moreover, in the assay on leukemia cell lines, halving of growth (GI50) required 0.003 ± 0.001 µM. Further, on CDK4/D1, the remaining activity at 10 µM was -11%.

As for `CS(=O)(=O)N1CCC(Nc2ncc(F)c(-c3cnc4ccc(-c5ccccc5)cn34)n2)CC1` [Compound 147, 5-Fluoro-N-(1-(methylsulfonyl)piperidin-4-yl)-4-(6-phenylimidazo[1,2-a]pyridin-3-yl)pyrimidin-2-amine], the Ki on CDKs and other kinases [1] came out at 0.334 µM; at CDKs and other kinases [3], 0.015 µM; on CDK9/T1, 0.711 µM. Also, the remaining activity at 10 µM is 54% at CDKs and other kinases [2]; 70% on CDK4/D1. The same compound registered a concentration for 50% growth inhibition (GI50) in the assay on leukemia cell lines of 0.62 ± 0.26 µM.

As for `COc1cnc(N[C@H]2CC[C@H](N)CC2)nc1-c1cnc2ccc(-c3ccccc3)cn12` [Compound 89, (1r,4r)-N^1-(5-Methoxy-4-(6-phenylimidazo[1,2-a]pyridin-3-yl)pyrimidin-2-yl)cyclohexane-1,4-diamine], the remaining activity at 10 µM came out at 10% at CDKs and other kinases [1]; 12% at CDKs and other kinases [2]; 7% on CDKs and other kinases [3]; 21% at CDK4/D1. In the assay on leukemia cell lines, this compound showed a 50% growth inhibitory concentration (GI50) of 0.003 ± 0.001 µM. In addition, the inhibition constant Ki on CDK9/T1 was 0.027 µM.

Consider `CN1CCC(N[C@H]2CC[C@H](Nc3ncc(F)c(-c4cnc5ccc(-c6ccccc6)cn45)n3)CC2)CC1` [Compound 160, (1r,4r)-N^1-(5-Fluoro-4-(6-phenylimidazo[1,2-a]pyridin-3-yl)pyrimidin-2-yl)-N^4-(1-methylpiperidin-4-yl) cyclohexane-1,4-diamine], for which the remaining activity at 10 µM on CDKs and other kinases [1] turned out to be 3%; at CDKs and other kinases [3], 7%; at CDK4/D1 it was 0%. Further, the Ki on CDKs and other kinases [2] was found to be 0.099 µM; on CDK9/T1, 0.014 µM.

For the compound `Fc1cnc(N[C@H]2CC[C@H](NC3CCOCC3)CC2)nc1-c1cnc2ccc(-c3ccccc3)cn12` [Compound 161, (1r,4r)-N^1-(5-fluoro-4-(6-phenylimidazo[1,2-a]pyridin-3-yl)pyrimidin-2-yl)-N^4-(tetrahydro-2H-pyran-4-yl) cyclohexane-1,4-diamine], the inhibition constant Ki at CDKs and other kinases [1] turned out to be 0.074 µM; on CDKs and other kinases [2], 0.094 µM; at CDK9/T1, 0.016 µM. Besides, the remaining activity at 10 µM at CDKs and other kinases [3] stood at 6%; on CDK4/D1, 3%.

Turning to `Cc1cnc(N[C@H]2CC[C@H](N3CCC3)CC2)nc1-c1cnc2ccc(Nc3cncc(F)c3)cn12` [Compound 139, 3-(2-(((1r,4r)-4-(Azetidin-1-yl)cyclohexyl)amino)-5-methylpyrimidin-4-yl)-N-(5-fluoropyridin-3-yl)imidazo [1,2-a]pyridin-6-amine], the remaining activity at 10 µM on CDKs and other kinases [1] was determined as 31%; at CDKs and other kinases [2] it was 15%; on CDKs and other kinases [3], 4%; on CDK4/D1 it was 14%. For the same compound, the Ki at CDK9/T1 is 0.044 µM.

(Values after patent publication US11111245B2, “Derivatives of N-cycloalkyl/heterocycloalkyl-4-(imidazo[1,2-a]pyridine)pyrimidin-2-amine as therapeutic agents” (Aucentra Therapeutics Pty Ltd, priority 2017, dated 2021).)
